Several values for one entry are separate records, joined by “and”; a condition that tells them apart may be missing. Identical values can stand only once. Marks after values point to notes of the source that are not given here.
Columns and labels:
[1] = Plasma pharmacokinetics of capivasertib and its glucuronide metabolite; format: in vivo, human
CYP = test system: CYP; parameters: method as in unpublished data; settings: ref unpublished data; cited from earlier work
[2] = Safety and tolerability (adverse events, CTCAE v5.0; full analysis set); format: in vivo, human; settings: period 1, day 1 cycle 1, midazolam only 1 mg, N=21
Experimental: Safety and tolerability were evaluated in terms of AEs, which were classified and graded according to the National Cancer Institute (NCI) Common Terminology Criteria for Adverse Events (CTCAE) v5.0; vital signs; 12-lead electrocardiogram (ECG); and clinical laboratory assessments, including clinical chemistry and hematology parameters, urinalysis, HbA1c levels, and lipid profiles.
Efficacy analyses were also performed on the full analysis set. Summary and/or descriptive statistics were used to analyze baseline demographic, safety, and efficacy data; PFS and DoR were estimated using Kaplan–Meier methodology.

[3] = Midazolam plasma pharmacokinetics with or without capivasertib (part A); settings: for AUC(0-inf): AUCinf; for tmax: median (range); for half-life: t½λz
[4] = human, plasma, oral, geometric mean (gCV%), day 8 of cycle 1, midazolam 1 mg on 3rd day off capivasertib 400 mg BID, N = 16
[5] = human, plasma, oral, geometric mean (gCV%), day 12 of cycle 1, midazolam 1 mg on 4th day on capivasertib 400 mg BID, N = 15
[6] = human, plasma, po, 1 mg, geometric mean (gCV%), day 1 of cycle 1, midazolam alone, single oral 1 mg, N = 18

NC1(C(=O)N[C@@H](CCO[C@@H]2O[C@H](C(=O)O)[C@@H](O)[C@H](O)[C@H]2O)c2ccc(Cl)cc2)CCN(c2ncnc3[nH]ccc23)CC1 [AZ14102143]
2.03^a (0.6–7.6) h: tmax ([1]; median (range), day 12 of cycle 1, capivasertib 400 mg BID)
11,220 ng/mL: Cmax ([1]; geometric mean (gCV%), day 12 of cycle 1, 4th day on capivasertib 400 mg BID, with single oral midazolam 1 mg)
45.22 ng/mL and 45.22^e (242.1) ng/mL: Ctrough cycle 1, day 9 ([1]; geometric mean (gCV%), after 3 off-capivasertib-dosing days)
3.40 h: t½λz ([1]; geometric mean (gCV%), day 12 of cycle 1, capivasertib 400 mg BID)
68,810 h*ng/mL: AUCτ ([1]; geometric mean (gCV%), 12-h dosing interval, day 12 of cycle 1, capivasertib 400 mg BID)
2575 ng/mL and 2575^f (106.9) ng/mL: Ctrough cycle 1, day 13 ([1]; geometric mean (gCV%), 12 h post day 12 capivasertib evening dose)
little or no CYP inhibition: CYP inhibition in vitro (CYP)

Cc1ncc2n1-c1ccc(Cl)cc1C(c1ccccc1F)=NC2 [midazolam, reference compound]
3 (14.3) n (%): Any AE, any grade [2]
25 ng·h/mL: AUC(0-inf) [3, 6]
8.55^a (39.6) ng/mL: Cmax ([3]; geometric mean (gCV%), day 1 of cycle 1, midazolam alone, single oral 1 mg, N = 18)
~30 min: tmax ([3]; human, plasma, oral, day 8 of cycle 1, midazolam 1 mg on 3rd day off capivasertib 400 mg BID, N = 16) | tmax ([3]; human, plasma, oral, day 12 of cycle 1, midazolam 1 mg on 4th day on capivasertib 400 mg BID, N = 15) | tmax ([3]; human, plasma, po, 1 mg, day 1 of cycle 1, midazolam alone, single oral 1 mg, N = 18)
9.9 ng/mL: Cmax ([3]; human, plasma, oral, Cmax, geometric mean (gCV%), day 8 of cycle 1, midazolam 1 mg on 3rd day off capivasertib 400 mg BID, N = 16)
1 (4.8) n (%): Hyperglycemia, any grade [2]
434 min: half-life [3, 5] | half-life [3, 6]
39.5 ng·h/mL: AUC(0-inf) [3, 5]
28.3 ng·h/mL: AUC(0-inf) [3, 4]
9.83 ng/mL: Cmax ([3]; human, plasma, oral, Cmax, geometric mean (gCV%), day 12 of cycle 1, midazolam 1 mg on 4th day on capivasertib 400 mg BID, N = 15)
24.49^b (45.3) h*ng/mL: AUClast ([3]; geometric mean (gCV%), day 8 of cycle 1, midazolam 1 mg on 3rd day off capivasertib 400 mg BID, N = 16)
511 min: half-life [3, 4]
22.4 ng·h/mL: AUC(0-t) ([3]; human, plasma, po, 1 mg)
0 n (%): Abdominal pain, any grade [2] | Abdominal pain, grade ≥ 3 [2] | Anemia, any grade [2] | Anemia, grade ≥ 3 [2] | Any AE, grade ≥ 3 [2] | Asthenia, any grade [2] | Asthenia, grade ≥ 3 [2] | Blood alkaline phosphatase increased, any grade [2] | Blood alkaline phosphatase increased, grade ≥ 3 [2] | Blood bilirubin increased, any grade [2] | Blood bilirubin increased, grade ≥ 3 [2] | Blood creatinine increased, any grade [2] | Blood creatinine increased, grade ≥ 3 [2] | COVID-19, any grade [2] | COVID-19, grade ≥ 3 [2] | Decreased appetite, any grade [2] | Decreased appetite, grade ≥ 3 [2] | Diarrhea, any grade [2] | Diarrhea, grade ≥ 3 [2] | Fatigue, any grade [2] | Fatigue, grade ≥ 3 [2] | Gamma-glutamyl transferase increased, any grade [2] | Gamma-glutamyl transferase increased, grade ≥ 3 [2] | Hyperglycemia, grade ≥ 3 [2] | Hypoalbuminemia, any grade [2] | Hypoalbuminemia, grade ≥ 3 [2] | Hypokalemia, any grade [2] | Hypokalemia, grade ≥ 3 [2] | Hyponatremia, any grade [2] | Hyponatremia, grade ≥ 3 [2] | Hypotension, any grade [2] | Hypotension, grade ≥ 3 [2] | Large intestinal obstruction, any grade [2] | Large intestinal obstruction, grade ≥ 3 [2] | Lymphocyte count decreased, any grade [2] | Lymphocyte count decreased, grade ≥ 3 [2] | Nausea, any grade [2] | Nausea, grade ≥ 3 [2] | Rash (group term), any grade [2] | Rash (group term), grade ≥ 3 [2] | Sepsis, any grade [2] | Sepsis, grade ≥ 3 [2] | Thrombocytopenia, any grade [2] | Thrombocytopenia, grade ≥ 3 [2] | Ureteric obstruction, any grade [2] | Ureteric obstruction, grade ≥ 3 [2] | Urticaria, any grade [2] | Urticaria, grade ≥ 3 [2]

— paper PMC11390765 (Cancer Chemotherapy and Pharmacology, 2024)
